Data as given in patent US6528260B1, “Biallelic markers related to genes involved in drug metabolism” (Genset, S.A., priority 1999, dated 2003).

Assays:
[1] = system: DME-related biallelic markers; assay: Genotyping by microsequencing: allele frequencies of DME-related biallelic markers in random Caucasian populations; design: species or system human; details: Caucasian FRENCH
Method: The biallelic markers identified as described above were further confirmed and their respective frequencies were determined through microsequencing. Microsequencing was carried out on individual DNA samples obtained as described herein.
Amplification of genomic DNA fragments from individual DNA samples was performed as described in Example 1 using the same set of PCR primers (See Table 17). Microsequencing was carried out on the amplified fragments using specific primers (See Table 16). The preferred primers used in microsequencing had about 19 nucleotides in length and hybridized just upstream of the considered polymorphic base.
The microsequencing reactions were performed as follows: 5 μl of PCR products were added to 5 μl purification mix (2U SAP (Shrimp alkaline phosphate) (Amersham E70092X)); 2U Exonuclease I (Amersham E70073Z); and 1 μl SAP buffer (200 mM Tris-HCl pH8, 100 mM MgCl2) in a microtiter plate. The reaction mixture was incubated 30 minutes at 37° C., and denatured 10 minutes at 94° C. afterwards. To each well was then added 20 μl of microsequencing reaction mixture containing: 10 pmol microsequencing oligonucleotide (19 mers, GENSET, crude synthesis, 5 OD), 1 U Thermosequenase (Amersham E79000G), 1.25 μl Thermosequenase buffer (260 mM Tris HCl pH 9.5, 65 mM MgCl2), and the two appropriate fluorescent ddNTPs complementary to the nucleotides at the polymorphic site corresponding to both polymorphic bases (11.25 nM TAMRA-ddTTP; 16.25 nM ROX-ddCTP; 1.675 nM REG-ddATP; 1.25 nM RHO-ddGTP; Perkin Elmer, Dye Terminator Set 401095). After 4 minutes at 94° C., 20 PCR cycles of 15 sec at 55° C., 5 sec at 72° C., and 10 sec at 94° C. were carried out in a Tetrad PTC-225 thermocycler (MJ Research). The microtiter plate was centrifuged 10 sec at 1500 rpm. The unincorporated dye terminators were removed by precipitation with 19 μl MgCl2 2 mM and 55 μl 100% ethanol. After 15 minute incubation at room temperature, the microtiter plate was centrifuged at 3300 rpm 15 minutes at 4° C. After discarding the supernatants, the microplate was evaporated to dryness under reduced pressure (Speed Vac). Samples were resuspended in 2.5 μl formamide EDTA loading buffer and heated for 2 min at 95° C. 0.8 μl microsequencing reaction were loaded on a 10% (19:1) polyacrylamide sequencing gel. The data were collected by an ABI PRISM 377 DNA sequencer and processed using the GENESCAN software (Perkin Elmer).
The frequencies for both alleles are shown for preferred MGST-II, ME1, UGT1A7 and UGT2B4 markers in Tables 19, 20, 21 and 22, respectively.

[2] = system: smooth muscle in peripheral airways; details: both in vitro and in vivo; cited from earlier work
[3] = system: serum level of alanine aminotransferase (ALT); assay: Clinical study of zileuton: hepatotoxicity monitored by serum ALT level; type: in vivo, human; details: asthmatic individuals treated with zileuton
From the text: In a preferred embodiment, the trait considered was a side-effect upon drug treatment, the study involved two populations derived from a clinical study of the anti-asthmatic drug zileuton. The case population was composed of asthmatic individuals treated with zileuton showing zileuton-associated hepatotoxicity monitored by the serum level of alanine aminotransferase (ALT) and the control population was composed of asthmatic individuals treated with zileuton and having no increased serum level of ALT. Inclusion criteria and association between the biallelic markers of the present invention and zileuton-associated hepatotoxicity are further described below and in Example 4.
Zileuton (Zyflo™) is an active inhibitor of 5-lipoxygenase, the enzyme that catalyzes the formation of leukotrienes from arachidonic acid, indicated for prophylaxis and chronic treatment of asthma. […] In the present invention the ALT test (serum level of alanine aminotransferase) was used, which is considered the most sensitive indicator of liver injury.
Two groups of unrelated individuals were used in this association study in accordance with the invention: the case-control populations. The case population was composed of 89 asthmatic individuals treated with zileuton showing zileuton-associated hepatotoxicity monitored by the serum level of alanine aminotransferase (ALT) and the control population was composed of 208 asthmatic individuals treated with zileuton and having no increased serum ALT level.
The side effect examined in this study was the hepatotoxicity experienced by asthmatic individuals as a result of their treatment with Zileuton as part of a clinical study. […] Hepatotoxicity was monitored by measuring the serum levels of alanine aminotransferase (ALT), which is a sensitive indicator of liver cell damage.
As mentioned above, an association study is more informative if the populations considered present extreme phenotypes. […]

## 12-124-194 (DNA TCTAGCTGGAGCCTGCGCTTGAGYAAAGAGCTGAACAACCAGATTGC; allele 24: 12-124-194 : polymorphic base C or T; listed as Homo Sapiens)
[1]
  allele frequency C: 19.41
  allele frequency T: 80.59

## 12-141-159 (DNA CTCAGTGAGTGAGTTGAAGGGCTYAGTCAACTATTTGTTGATACCAC; allele 24: 12-141-159 : polymorphic base T or C; listed as Homo Sapiens)
[1]
  allele frequency A: 37.5
  allele frequency G: 62.5

## 12-142-321 (DNA GCAGCACAGCGGTCTGCGTGGAARTGAGGCACCGGGTGTGGGCGGGG; allele 24: 12-142-321 : polymorphic base A or G; listed as Homo Sapiens)
[1]
  allele frequency A: 54.44
  allele frequency G: 45.56

## 12-143-453 (DNA TGGAGTGGAGCTTGGTTCTGGCCRTGGGCTGGGGAAGGGAGGTCCGG; allele 24: 12-143-453 : polymorphic base A or G; listed as Homo Sapiens)
[1]
  allele frequency A: 50.61
  allele frequency G: 49.39

## CCCCC/C=C\C\C=C/C=C/C=C/[C@@H](SC[C@H](NC(=O)CC[C@H](N)C(=O)O)C(=O)NCC(=O)O)[C@@H](O)CCCC(=O)O [LTC4, leukotriene C4]
[2]
  bronchoconstrictor potency relative to histamine: 1000 times

## CCCCC/C=C\C\C=C/C=C/C=C/[C@@H](SC[C@H](N)C(=O)NCC(=O)O)[C@@H](O)CCCC(=O)O [LTD4, Leukotriene D4]
[2]
  bronchoconstrictor potency relative to histamine: 1000 times

## CC(c1cc2ccccc2s1)N(O)C(N)=O (stereo not shown) [Zileuton, zileuton]
[3]; 89 individuals
  ALT+ population (at least 3 times the upper limit of normal level of ALT) as share of total asthmatic individuals in the study: 4%
[3]; 208 individuals
  ALT- population (less than 1xULN of ALT) as share of total asthmatic individuals in the study: 35%
[3]; compared to ALT levels prior to zileuton intake
  asthmatic individuals that did not experience Zileuton-associated ALT increase: More than 90%
